# Assay results taken from ChEMBL document CHEMBL1201862, “PubChem BioAssay data set” (2004).
#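 Step 1: Grow cells in 96-well plates. Step 2: Expose to compound for 48 hours at 5 concentrations. Step 3: Interpolate endpoints linearly; if unreached, use highest concentration. The concentration for 50% growth inhibition is given as GI50.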 Calls of active or inactive are those of the source. No stated cut-off is given here; in the data, active = GI50 up to about 1.1 µM and inactive = higher.
# What was measured:
# Assay in all cases: DTP human tumour cell line panel, 48 h
# [1] = system: RPMI-8226
# [2] = system: ACHN
# [3] = system: CAKI-1
# [4] = system: DU-145
# [5] = system: SR
# [6] = system: SW-620
# [7] = system: MDA-MB-435
# [8] = system: SNB-19
# [9] = system: SK-MEL-5
# [10] = system: NCI-H23
# [11] = system: BT-549
# [12] = system: MDA-N
# [13] = system: SF-295
# [14] = system: NCI/ADR-RES
# [15] = system: OVCAR-4
# [16] = system: PC-3
# [17] = system: K562
# [18] = system: UACC-257
# [19] = system: Malme-3M
# [20] = system: MDA-MB-231
# [21] = system: SK-OV-3
# [22] = system: A498
# [23] = system: SF-268
# [24] = system: SNB-75
# [25] = system: MCF7
# [26] = system: HOP-62
# [27] = system: M14
# [28] = system: HL-60
# [29] = system: SF-539
# [30] = system: Hs-578T
# [31] = system: OVCAR-8
# [32] = system: HCC 2998
# [33] = system: SN12C
# [34] = system: TK-10
# [35] = system: NCI-H460
# [36] = system: SK-MEL-28
# [37] = system: IGROV-1
# [38] = system: HT-29
# [39] = system: LOX IMVI
# [40] = system: A549
# [41] = system: HCT-15
# [42] = system: KM12
# [43] = system: NCI-H226
# [44] = system: U-251
# [45] = system: EKVX
# [46] = system: NCI-H522
# [47] = system: RXF 393
# [48] = system: OVCAR-3
# [49] = system: HOP-92
# [50] = system: COLO 205
# [51] = system: HCT-116
# [52] = system: UO-31
# [53] = system: CCRF-CEM
# [54] = system: UACC-62
# [55] = system: MOLT-4
# [56] = system: T47D
# [57] = system: 786-0
smiles,measurement,setting,value
Cc1nc(C)c(N2CCNCC2)c(O)n1,GI50,[1],> 100 µM (inactive)
same,GI50,[2],> 100 µM (inactive)
same,GI50,[3],> 100 µM (inactive)
same,GI50,[4],> 100 µM (inactive)
same,GI50,[5],> 100 µM (inactive)
same,GI50,[6],> 100 µM (inactive)
same,GI50,[7],> 100 µM (inactive)
same,GI50,[8],> 100 µM (inactive)
same,GI50,[9],> 100 µM (inactive)
same,GI50,[10],> 100 µM (inactive)
same,GI50,[11],> 100 µM (inactive)
same,GI50,[12],> 100 µM (inactive)
same,GI50,[13],> 100 µM (inactive)
same,GI50,[14],> 100 µM (inactive)
same,GI50,[15],> 100 µM (inactive)
same,GI50,[16],> 100 µM (inactive)
same,GI50,[17],> 100 µM (inactive)
same,GI50,[18],> 100 µM (inactive)
same,GI50,[19],> 100 µM (inactive)
same,GI50,[20],> 100 µM (inactive)
same,GI50,[21],> 100 µM (inactive)
same,GI50,[22],> 100 µM (inactive)
same,GI50,[23],> 100 µM (inactive)
same,GI50,[24],> 100 µM (inactive)
same,GI50,[25],> 100 µM (inactive)
same,GI50,[26],> 100 µM (inactive)
same,GI50,[27],> 100 µM (inactive)
same,GI50,[28],> 100 µM (inactive)
same,GI50,[29],> 100 µM (inactive)
same,GI50,[30],> 100 µM (inactive)
same,GI50,[31],> 100 µM (inactive)
same,GI50,[32],> 100 µM (inactive)
same,GI50,[33],> 100 µM (inactive)
same,GI50,[34],> 100 µM (inactive)
same,GI50,[35],> 100 µM (inactive)
same,GI50,[36],> 100 µM (inactive)
same,GI50,[37],> 100 µM (inactive)
same,GI50,[38],> 100 µM (inactive)
same,GI50,[39],> 100 µM (inactive)
same,GI50,[40],> 100 µM (inactive)
same,GI50,[41],> 100 µM
same,GI50,[42],> 100 µM (inactive)
same,GI50,[43],> 100 µM (inactive)
same,GI50,[44],> 100 µM (inactive)
same,GI50,[45],> 100 µM (inactive)
same,GI50,[46],> 100 µM (inactive)
same,GI50,[47],> 100 µM (inactive)
same,GI50,[48],> 100 µM (inactive)
same,GI50,[49],> 100 µM (inactive)
same,GI50,[50],> 100 µM (inactive)
same,GI50,[51],> 100 µM (inactive)
same,GI50,[52],> 100 µM (inactive)
same,GI50,[53],> 100 µM (inactive)
same,GI50,[54],> 100 µM (inactive)
same,GI50,[55],> 100 µM (inactive)
same,GI50,[56],> 100 µM (inactive)
same,GI50,[57],> 100 µM (inactive)
